{"source": "patent US8980944B2", "about": "(Gemmus Pharma Inc., priority 2006, dated 2015)", "key": {"IFN-γ [1]": {"tested_on": "IFN-γ", "assay": "ConA-stimulated human peripheral blood lymphocytes, IFN-γ release (ELISA)", "conditions": "for Percent inhibition of IFN-γ compared to uninhibited control: human T cells, ConA stimulation"}, "IL-2": {"tested_on": "IL-2", "assay": "Anti-CD3/CD28-stimulated human CD8 cells, IL-2 release (multi-cytokine bead immunoassay)"}, "TNFα [2]": {"tested_on": "TNFα", "assay": "Poly(I:C)-stimulated human monocyte-derived dendritic cells, TNFα release (ELISA)", "type": "cell-based", "conditions": "one micromolar; for TNFα percent inhibition from untreated control: Poly IC-stimulated monocyte-derived dendritic cells, 18 hours"}, "IL-12": {"tested_on": "IL-12", "assay": "LPS-stimulated human monocyte-derived dendritic cells, IL-12 release (ELISA)", "conditions": "LPS stimulation"}, "TNFα [3]": {"tested_on": "TNFα", "assay": "ConA-stimulated human peripheral blood lymphocytes, TNFα release (ELISA)", "conditions": "human T cells, ConA stimulation"}, "GM-CSF": {"tested_on": "GM-CSF", "assay": "Anti-CD3/CD28-stimulated human CD8 cells, GM-CSF release (multi-cytokine bead immunoassay)", "conditions": "1 μM Nileprost, Anti-CD3/CD28 stimulation, individual donors 1-4"}, "IFN-γ [4]": {"tested_on": "IFN-γ", "assay": "Anti-CD3/CD28-stimulated human CD8 cells, IFN-γ release (multi-cytokine bead immunoassay)"}, "clinical": {"assay": "clinical", "conditions": "human, in vivo, po"}, "[5]": {"assay": "Study A: tolerance and pharmacokinetics in volunteers after single oral dose", "conditions": "human, in vivo"}}, "note": "“And” between values parts separate entries of the source, which are not always exact repeats. Equal values may be shown once.", "data": [{"smiles": "CCCCC(C)[C@H](O)/C=C/[C@@H]1[C@H]2C/C(=C(\\C#N)CCCC(=O)O)O[C@H]2C[C@H]1O", "note": "(stereo partly drawn) [Nileprost]", "values": [{"measurement": "Percent inhibition of IFN-γ compared to uninhibited control", "setting": "IFN-γ [1]; Nileprost 0.04 nM, individual donors 5-8", "result": "16% and 7% and 9% and 27%"}, {"measurement": "Percent inhibition of IFN-γ compared to uninhibited control", "setting": "IFN-γ [1]; Nileprost 0.11 nM, individual donors 5-8", "result": "22% and 16% and 34%"}, {"measurement": "Percent inhibition of IFN-γ compared to uninhibited control", "setting": "IFN-γ [1]; Nileprost 1 nM, individual donors 5-8", "result": "43% and 32% and 24% and 51%"}, {"measurement": "Percent inhibition of IFN-γ compared to uninhibited control", "setting": "IFN-γ [1]; Nileprost 1.25 nM, individual donors 1-4", "result": 11, "unit": "%"}, {"measurement": "Percent inhibition of IFN-γ compared to uninhibited control", "setting": "IFN-γ [1]; Nileprost 2.5 nM, individual donors 1-4", "result": 43, "unit": "%"}, {"measurement": "Percent inhibition of IFN-γ compared to uninhibited control", "setting": "IFN-γ [1]; Nileprost 3 nM, individual donors 5-8", "result": "56% and 46% and 22% and 71%"}, {"measurement": "Percent inhibition of IFN-γ compared to uninhibited control", "setting": "IFN-γ [1]; Nileprost 5 nM, individual donors 1-4", "result": "48% and 56%"}, {"measurement": "Percent inhibition of IFN-γ compared to uninhibited control", "setting": "IFN-γ [1]; Nileprost 9 nM, individual donors 5-8", "result": "59% and 60% and 48% and 73%"}, {"measurement": "Percent inhibition of IFN-γ compared to uninhibited control", "setting": "IFN-γ [1]; Nileprost 10 nM, individual donors 1-4", "result": 43, "unit": "%"}, {"measurement": "Percent inhibition of IFN-γ compared to uninhibited control", "setting": "IFN-γ [1]; Nileprost 20 nM, individual donors 1-4", "result": "56% and 67%"}, {"measurement": "Percent inhibition of IFN-γ compared to uninhibited control", "setting": "IFN-γ [1]; Nileprost 83 nM, individual donors 5-8", "result": "57% and 60% and 65% and 85%"}, {"measurement": "Percent inhibition of IFN-γ compared to uninhibited control", "setting": "IFN-γ [1]; Nileprost 250 nM, individual donors 5-8", "result": "59% and 76% and 57% and 83%"}, {"measurement": "inhibitory activity in the T lymphocyte Th-1 cytokine release", "setting": "IFN-γ [1]; dose responsively, ConA-stimulated human lymphocytes", "result": "very high inhibitory activity"}, {"measurement": "Percent inhibition of IL-2 compared to uninhibited control", "setting": "IL-2; 1 μM Nileprost, Anti-CD3/CD28 stimulation, individual donors 1-4", "result": 70, "unit": "%"}, {"measurement": "inhibition at 1 µM", "setting": "IL-2; Homo sapiens, read-out: Percent inhibition of IL-2 compared to uninhibited control, 1 μM Nileprost, Anti-CD3/CD28 stimulation, individual donors 1-4", "result": 71, "unit": "%"}, {"measurement": "TNFα percent inhibition from untreated control", "setting": "TNFα [2]; Donor 1", "result": 89, "unit": "%"}, {"measurement": "TNFα percent inhibition from untreated control", "setting": "TNFα [2]; Donor 2", "result": 45, "unit": "%"}, {"measurement": "TNFα percent inhibition from untreated control", "setting": "TNFα [2]; Donor 3", "result": 74, "unit": "%"}, {"measurement": "Poly(I:C)-induced TNFα", "setting": "TNFα [2]; monocyte-derived dendritic cells", "result": "significant decrease"}, {"measurement": "inhibitory activity in human monocyte-derived dendritic cell (DC) cytokine release", "setting": "IL-12", "result": "very high inhibitory activity"}, {"measurement": "inhibition at 0.001 µM", "setting": "TNFα [3]; Homo sapiens, T-cell, read-out: Percent inhibition of TNF compared to uninhibited control, Nileprost 1 nM, individual donors 3-4", "result": 24, "unit": "%"}, {"measurement": "inhibition at 0.0025 µM", "setting": "TNFα [3]; Homo sapiens, T-cell, read-out: Percent inhibition of TNF compared to uninhibited control, Nileprost 2.5 nM, individual donors 1-2", "result": 24, "unit": "%"}, {"measurement": "inhibition at 0.003 µM", "setting": "TNFα [3]; Homo sapiens, T-cell, read-out: Percent inhibition of TNF compared to uninhibited control, Nileprost 3 nM, individual donors 3-4", "result": 28, "unit": "%"}, {"measurement": "inhibition at 0.005 µM", "setting": "TNFα [3]; Homo sapiens, T-cell, read-out: Percent inhibition of TNF compared to uninhibited control, Nileprost 5 nM, individual donors 1-2", "result": 47, "unit": "%"}, {"measurement": "inhibition at 0.009 µM", "setting": "TNFα [3]; Homo sapiens, T-cell, read-out: Percent inhibition of TNF compared to uninhibited control, Nileprost 9 nM, individual donors 3-4", "result": 53, "unit": "%"}, {"measurement": "inhibition at 0.01 µM", "setting": "TNFα [3]; Homo sapiens, T-cell, read-out: Percent inhibition of TNF compared to uninhibited control, Nileprost 10 nM, individual donors 1-2", "result": 46, "unit": "%"}, {"measurement": "inhibition at 0.02 µM", "setting": "TNFα [3]; Homo sapiens, T-cell, read-out: Percent inhibition of TNF compared to uninhibited control, Nileprost 20 nM, individual donors 1-2", "result": 50, "unit": "%"}, {"measurement": "inhibition at 0.083 µM", "setting": "TNFα [3]; Homo sapiens, T-cell, read-out: Percent inhibition of TNF compared to uninhibited control, Nileprost 83 nM, individual donors 3-4", "result": 61, "unit": "%"}, {"measurement": "Percent inhibition of TNF compared to uninhibited control", "setting": "TNFα [3]; Nileprost 0.04 nM, individual donors 3-4", "result": "1% and 11%"}, {"measurement": "Percent inhibition of TNF compared to uninhibited control", "setting": "TNFα [3]; Nileprost 0.11 nM, individual donors 3-4", "result": "4% and 16%"}, {"measurement": "Percent inhibition of TNF compared to uninhibited control", "setting": "TNFα [3]; Nileprost 0.5 nM, individual donors 1-2", "result": "7% and 1%"}, {"measurement": "Percent inhibition of TNF compared to uninhibited control", "setting": "TNFα [3]; Nileprost 1 nM, individual donors 3-4", "result": 37, "unit": "%"}, {"measurement": "Percent inhibition of TNF compared to uninhibited control", "setting": "TNFα [3]; Nileprost 1.25 nM, individual donors 1-2", "result": "14% and 5%"}, {"measurement": "Percent inhibition of TNF compared to uninhibited control", "setting": "TNFα [3]; Nileprost 2.5 nM, individual donors 1-2", "result": 19, "unit": "%"}, {"measurement": "Percent inhibition of TNF compared to uninhibited control", "setting": "TNFα [3]; Nileprost 3 nM, individual donors 3-4", "result": 48, "unit": "%"}, {"measurement": "Percent inhibition of TNF compared to uninhibited control", "setting": "TNFα [3]; Nileprost 5 nM, individual donors 1-2", "result": 36, "unit": "%"}, {"measurement": "Percent inhibition of TNF compared to uninhibited control", "setting": "TNFα [3]; Nileprost 9 nM, individual donors 3-4", "result": 67, "unit": "%"}, {"measurement": "Percent inhibition of TNF compared to uninhibited control", "setting": "TNFα [3]; Nileprost 10 nM, individual donors 1-2", "result": 49, "unit": "%"}, {"measurement": "Percent inhibition of TNF compared to uninhibited control", "setting": "TNFα [3]; Nileprost 83 nM, individual donors 3-4", "result": 76, "unit": "%"}, {"measurement": "Percent inhibition of TNF compared to uninhibited control", "setting": "TNFα [3]; Nileprost 250 nM, individual donors 3-4", "result": "49% and 76%"}, {"measurement": "Percent inhibition of GM-CSF compared to uninhibited control", "setting": "GM-CSF", "result": "65% and 61%"}, {"measurement": "Percent inhibition of IFN-γ compared to uninhibited control", "setting": "IFN-γ [4]; 1 μM Nileprost, human CD8 cells, Anti-CD3/CD28 stimulation, individual donors 1-4", "result": "59% and 80%"}, {"measurement": "inhibitory activity in the cytotoxic CD8+ lymphocyte cytokine release", "setting": "IFN-γ [4]; IFN-γ, GM-CSF and IL-2, anti-CD3/CD28 stimulation", "result": "very high inhibitory activity"}, {"measurement": "Cmax", "setting": "clinical; 50 ug", "result": "0.566 ng/mL and 1.4 nM"}, {"measurement": "Cmax", "setting": "clinical; 75 ug", "result": "0.869 ng/mL and 2.2 nM"}, {"measurement": "Cmax", "setting": "clinical; 112 ug", "result": "0.803 ng/mL and 2 nM"}, {"measurement": "Cmax", "setting": "clinical; 170 ug", "result": "0.954 ng/mL and 2.4 nM"}, {"measurement": "Cmax", "setting": "clinical; 255 ug", "result": "1.71 ng/mL and 4.3 nM"}, {"measurement": "Cmax", "setting": "clinical; 375 ug", "result": "1.72 ng/mL and 4.3 nM"}, {"measurement": "Cmax", "setting": "[5]; 32 ug", "result": "0.84 ng/mL and 2.1 nM"}, {"measurement": "Cmax", "setting": "[5]; 65 ug", "result": "0.929 ng/mL and 2.3 nM"}]}]}
